Measurements from article PMC7906330 (PLoS ONE, 2021).

Experiments:
[1] = pH 7
trypsin = assay: in vitro; conditions: isolated enzyme trypsin, pH 8.5

SMILES	α-helical structure / structural stability by CD [1]	half-life (trypsin) [min]
CC[C@H](C)[C@H](NC(=O)[C@H](CC(C)C)NC(=O)[C@H](Cc1ccccc1)NC(=O)[C@H](CCC(N)=O)NC(=O)[C@H](CC(C)C)NC(=O)[C@H](CCCCN)NC(=O)CNC(=O)[C@H](Cc1ccc(O)cc1)NC(=O)[C@@H]1CCCN1C(=O)[C@@H](NC(=O)[C@@H]1CCCN1C(=O)[C@H](Cc1ccc(O)cc1)NC(=O)CNC(=O)[C@H](CCCCN)NC(=O)[C@H](Cc1c[nH]c2ccccc12)NC(=O)[C@@H]1CCCN1C(=O)CN)[C@@H](C)CC)C(=O)N[C@@H](CCCCN)C(=O)N[C@@H](CCCCN)C(=O)N[C@@H](CC(C)C)C(=O)N[C@@H](CCCCN)C(=O)N[C@@H](CCC(N)=O)C(=O)N[C@@H](CC(C)C)C(=O)N[C@@H](CCCCN)C(=O)N[C@H](C(N)=O)C(C)C [Peptide M49dN]	no α-helical structure	5 ± 0.3
CC[C@H](C)[C@H](NC(=O)[C@H](CC(C)C)NC(=O)[C@H](Cc1ccccc1)NC(=O)[C@H](CCC(N)=O)NC(=O)[C@H](CC(C)C)NC(=O)[C@H](CCCCN)NC(=O)CNC(=O)[C@H](Cc1ccc(O)cc1)NC(=O)[C@@H]1CCCN1C(=O)[C@@H](NC(=O)[C@@H]1CCCN1C(=O)[C@H](Cc1ccc(O)cc1)NC(=O)CNC(=O)[C@H](CCCCN)NC(=O)[C@H](Cc1c[nH]c2ccccc12)NC(=O)[C@@H]1CCCN1C(=O)CNC(=O)[C@H](CCC(=O)O)NC(=O)[C@H](CC(C)C)NC(=O)[C@H](C)NC(=O)[C@H](C)NC(=O)[C@H](CC(C)C)NC(=O)[C@H](CCC(=O)O)NC(=O)[C@H](C)NC(=O)[C@H](CCC(=O)O)NC(=O)[C@H](CC(C)C)NC(=O)[C@H](C)NC(=O)[C@H](C)NC(=O)[C@H](CC(C)C)NC(=O)[C@H](CCC(=O)O)NC(=O)[C@H](C)N)[C@@H](C)CC)C(=O)N[C@@H](CCCCN)C(=O)N[C@@H](CCCCN)C(=O)N[C@@H](CC(C)C)C(=O)N[C@@H](CCCCN)C(=O)N[C@@H](CCC(N)=O)C(=O)N[C@@H](CC(C)C)C(=O)N[C@@H](CCCCN)C(=O)N[C@H](C(N)=O)C(C)C [Peptide M49dS]	mostly denatured at 80 °C	39 ± 2
